Calls of active or inactive are those of the source. The rule behind the calls is not given here.

Data set [1] addresses T1, Prostaglandin D2 receptor 2 (Homo sapiens, UniProt Q9Y5Y4).
T1 sequence (Q9Y5Y4 whole entry): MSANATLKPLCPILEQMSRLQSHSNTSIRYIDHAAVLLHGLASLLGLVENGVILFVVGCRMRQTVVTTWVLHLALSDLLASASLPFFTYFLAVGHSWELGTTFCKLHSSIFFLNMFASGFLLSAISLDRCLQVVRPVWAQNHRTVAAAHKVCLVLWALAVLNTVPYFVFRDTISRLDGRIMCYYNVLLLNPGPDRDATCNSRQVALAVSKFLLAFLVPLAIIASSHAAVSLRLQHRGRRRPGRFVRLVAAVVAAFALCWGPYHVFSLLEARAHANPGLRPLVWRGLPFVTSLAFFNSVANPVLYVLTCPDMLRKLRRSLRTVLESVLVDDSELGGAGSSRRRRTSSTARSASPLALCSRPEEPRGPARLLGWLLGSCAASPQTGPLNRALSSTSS
Nature of the data set: Displacement of […] from human CRTh2 receptor expressed in CHO cells. Type of data set: cell-based. (In a radioligand displacement assay an active substance lowers the binding of a labelled ligand.)

Data set [2] addresses T2, Prostaglandin D2 receptor (Homo sapiens, UniProt Q13258).
T2 sequence (Q13258 whole entry): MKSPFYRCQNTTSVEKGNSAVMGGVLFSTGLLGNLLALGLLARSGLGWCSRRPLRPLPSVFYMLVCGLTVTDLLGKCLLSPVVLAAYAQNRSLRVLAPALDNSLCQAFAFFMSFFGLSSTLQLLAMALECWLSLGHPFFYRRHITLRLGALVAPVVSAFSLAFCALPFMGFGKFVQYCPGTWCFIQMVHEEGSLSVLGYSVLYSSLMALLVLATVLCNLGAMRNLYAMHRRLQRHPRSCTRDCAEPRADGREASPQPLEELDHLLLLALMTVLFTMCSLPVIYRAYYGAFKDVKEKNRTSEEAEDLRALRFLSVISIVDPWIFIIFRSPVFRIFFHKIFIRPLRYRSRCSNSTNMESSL
Nature of the data set: Binding affinity at prostanoid DP receptor.

Data set [3] deals with Eosinophil. Nature of the data set: Inhibition of 13,14-dihydro-15-ketoprostaglandin D2-stimulated human eosinophils shape change. Type of data set: functional, cell-based.
In another data set the target is T3, Thromboxane A2 receptor (Homo sapiens, UniProt P21731).
T3 sequence (P21731 whole entry): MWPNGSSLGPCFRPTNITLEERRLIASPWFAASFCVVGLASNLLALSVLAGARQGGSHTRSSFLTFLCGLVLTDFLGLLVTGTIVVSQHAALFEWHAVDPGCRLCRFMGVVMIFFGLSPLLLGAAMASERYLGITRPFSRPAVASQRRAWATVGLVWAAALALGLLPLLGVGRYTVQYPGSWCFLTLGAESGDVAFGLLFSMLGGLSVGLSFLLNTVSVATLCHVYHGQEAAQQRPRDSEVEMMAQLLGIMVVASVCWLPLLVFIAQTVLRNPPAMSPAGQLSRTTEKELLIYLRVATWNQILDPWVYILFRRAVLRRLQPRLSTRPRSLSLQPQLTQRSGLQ
Nature of the data set: Binding affinity at prostanoid TP receptor.

In data set [4] the target is Prostaglandin E2 receptor EP2 subtype (Homo sapiens, UniProt P43116). Nature of the data set: Binding affinity at prostanoid EP2 receptor.
Chain of Prostaglandin E2 receptor EP2 subtype (P43116 whole entry): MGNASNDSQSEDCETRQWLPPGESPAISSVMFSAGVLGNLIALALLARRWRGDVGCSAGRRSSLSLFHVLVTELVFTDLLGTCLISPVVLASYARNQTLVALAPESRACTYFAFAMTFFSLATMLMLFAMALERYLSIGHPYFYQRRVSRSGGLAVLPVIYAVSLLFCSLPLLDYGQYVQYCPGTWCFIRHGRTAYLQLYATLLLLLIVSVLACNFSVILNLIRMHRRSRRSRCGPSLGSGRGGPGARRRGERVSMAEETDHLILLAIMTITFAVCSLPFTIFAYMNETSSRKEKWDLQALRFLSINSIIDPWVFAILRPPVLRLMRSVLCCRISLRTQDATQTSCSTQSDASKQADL
Another data set deals with T4, Cytochrome P450 1A2 (Homo sapiens, UniProt P05177).
T4 sequence (P05177 whole entry): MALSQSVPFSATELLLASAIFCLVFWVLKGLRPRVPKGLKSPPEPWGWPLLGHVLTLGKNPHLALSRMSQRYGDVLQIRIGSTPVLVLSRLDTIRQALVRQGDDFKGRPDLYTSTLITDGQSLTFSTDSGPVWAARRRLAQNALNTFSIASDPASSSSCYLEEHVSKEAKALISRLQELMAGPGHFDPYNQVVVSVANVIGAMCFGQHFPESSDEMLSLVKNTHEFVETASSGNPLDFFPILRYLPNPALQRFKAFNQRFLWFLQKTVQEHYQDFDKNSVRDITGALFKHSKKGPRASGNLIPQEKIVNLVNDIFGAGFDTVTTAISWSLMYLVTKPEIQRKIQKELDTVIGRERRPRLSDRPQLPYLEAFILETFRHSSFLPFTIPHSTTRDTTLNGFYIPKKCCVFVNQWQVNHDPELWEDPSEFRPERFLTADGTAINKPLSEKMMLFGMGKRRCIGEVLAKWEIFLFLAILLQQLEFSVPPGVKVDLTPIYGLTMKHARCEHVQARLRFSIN
Nature of the data set: Inhibition of CYP1A2. In kind it is ADME.

Data set [5] is described as follows: Intrinsic clearance in human microsomes. Type of data set: ADME, Microsome.
Data set [6] concerns Eosinophil. Nature of the data set: Inhibition of 13,14-dihydro-15-ketoprostaglandin D2-stimulated human eosinophils shape change upto 10 uM. In kind it is functional, cell-based.
Data set [7] is described as follows: Permeability from apical to basolateral side of Caco-2 cell membrane. Type of data set: ADME, cell-based. The note with it: human, read-out: permeability.
Data set [8] can be described thus: Oral bioavailability in rat at 2 mg/kg. Type of data set: ADME, organism-based. The settings on record: in vivo.
Data set [9] is described as follows: Volume of distribution at steady state in rat. In kind it is ADME, organism-based. The note with it: in vivo, read-out: Vdss.
A short description of data set [10]: Intrinsic clearance in rat microsomes. Type of data set: ADME, Microsome.
Another data set addresses Cytochrome P450 2D6 (Homo sapiens, UniProt P10635). Nature of the data set: Inhibition of CYP2D6. Type of data set: ADME.
The next data set deals with Cytochrome P450 3A4 (Homo sapiens, UniProt P08684). Nature of the data set: Inhibition of CYP3A4. In kind it is ADME.
Chain of Cytochrome P450 3A4 (P08684 whole entry): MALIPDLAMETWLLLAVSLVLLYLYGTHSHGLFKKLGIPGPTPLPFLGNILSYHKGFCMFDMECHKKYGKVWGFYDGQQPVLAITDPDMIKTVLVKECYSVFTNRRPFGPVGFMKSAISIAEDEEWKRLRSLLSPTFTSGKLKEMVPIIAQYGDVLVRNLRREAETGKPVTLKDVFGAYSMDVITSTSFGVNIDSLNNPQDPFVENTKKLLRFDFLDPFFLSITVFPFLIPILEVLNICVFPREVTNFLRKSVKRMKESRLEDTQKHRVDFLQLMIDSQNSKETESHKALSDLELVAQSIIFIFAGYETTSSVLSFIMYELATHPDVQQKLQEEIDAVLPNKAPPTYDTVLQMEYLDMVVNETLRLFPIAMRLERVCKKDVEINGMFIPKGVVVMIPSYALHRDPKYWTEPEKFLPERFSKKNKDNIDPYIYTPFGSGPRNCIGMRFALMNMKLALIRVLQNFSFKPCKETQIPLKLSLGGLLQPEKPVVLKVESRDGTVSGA
The nature of data set [11]: Permeability from basolateral to apical side of Caco-2 cell membrane. Type of data set: ADME, cell-based. The settings on record: human, read-out: permeability. For orientation: Passage across Caco-2 layers is used to estimate intestinal permeability.
Another data set concerns the target Cytochrome P450 2C19 (Homo sapiens, UniProt P33261). Nature of the data set: Inhibition of CYP2C19. Type of data set: ADME.
Data set [12] is described as follows: AUCall in rat. Type of data set: ADME, organism-based. The settings on record: plasma.
The target in the next data set is Cytochrome P450 2C9 (Homo sapiens, UniProt P11712). Nature of the data set: Inhibition of CYP2C9. In kind it is ADME.
Chain of Cytochrome P450 2C9 (P11712 whole entry): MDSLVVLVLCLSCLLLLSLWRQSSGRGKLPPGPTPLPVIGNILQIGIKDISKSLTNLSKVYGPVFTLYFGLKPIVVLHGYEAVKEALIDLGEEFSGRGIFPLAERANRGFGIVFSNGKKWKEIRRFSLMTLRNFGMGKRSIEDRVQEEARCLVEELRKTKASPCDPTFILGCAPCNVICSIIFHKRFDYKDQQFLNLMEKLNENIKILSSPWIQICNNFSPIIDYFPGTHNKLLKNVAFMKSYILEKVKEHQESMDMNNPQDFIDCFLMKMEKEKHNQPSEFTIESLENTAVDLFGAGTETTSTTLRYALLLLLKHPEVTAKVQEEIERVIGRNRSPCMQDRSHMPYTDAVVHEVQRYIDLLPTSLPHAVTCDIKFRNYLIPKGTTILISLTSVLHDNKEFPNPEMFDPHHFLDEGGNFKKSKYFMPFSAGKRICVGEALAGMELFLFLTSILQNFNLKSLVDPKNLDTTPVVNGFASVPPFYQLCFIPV
The nature of data set [13]: Cmax in rat. Type of data set: ADME, organism-based. The settings on record: in vivo.
Data set [14] is described as follows: Half life in rat at 0.5 mg/kg, iv. In kind it is ADME, organism-based. The settings on record: in vivo. Set-up: dose 0.5 mg/kg, route intravenous.
A short description of data set [15]: Clearance in rat. In kind it is ADME, organism-based. The settings on record: in vivo.

Chain of Cytochrome P450 2C19 (P33261 whole entry): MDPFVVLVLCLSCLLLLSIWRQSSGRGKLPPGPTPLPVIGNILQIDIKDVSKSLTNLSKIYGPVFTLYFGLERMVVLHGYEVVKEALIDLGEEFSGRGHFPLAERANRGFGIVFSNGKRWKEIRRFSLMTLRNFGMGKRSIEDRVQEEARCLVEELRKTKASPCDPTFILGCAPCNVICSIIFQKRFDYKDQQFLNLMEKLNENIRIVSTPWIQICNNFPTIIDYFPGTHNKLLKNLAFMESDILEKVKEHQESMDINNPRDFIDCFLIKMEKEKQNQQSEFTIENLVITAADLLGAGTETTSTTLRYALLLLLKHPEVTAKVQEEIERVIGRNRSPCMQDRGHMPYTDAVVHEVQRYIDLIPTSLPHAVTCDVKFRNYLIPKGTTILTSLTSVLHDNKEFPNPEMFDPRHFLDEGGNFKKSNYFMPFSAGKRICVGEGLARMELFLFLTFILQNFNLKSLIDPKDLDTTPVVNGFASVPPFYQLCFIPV
Chain of Cytochrome P450 2D6 (P10635 whole entry): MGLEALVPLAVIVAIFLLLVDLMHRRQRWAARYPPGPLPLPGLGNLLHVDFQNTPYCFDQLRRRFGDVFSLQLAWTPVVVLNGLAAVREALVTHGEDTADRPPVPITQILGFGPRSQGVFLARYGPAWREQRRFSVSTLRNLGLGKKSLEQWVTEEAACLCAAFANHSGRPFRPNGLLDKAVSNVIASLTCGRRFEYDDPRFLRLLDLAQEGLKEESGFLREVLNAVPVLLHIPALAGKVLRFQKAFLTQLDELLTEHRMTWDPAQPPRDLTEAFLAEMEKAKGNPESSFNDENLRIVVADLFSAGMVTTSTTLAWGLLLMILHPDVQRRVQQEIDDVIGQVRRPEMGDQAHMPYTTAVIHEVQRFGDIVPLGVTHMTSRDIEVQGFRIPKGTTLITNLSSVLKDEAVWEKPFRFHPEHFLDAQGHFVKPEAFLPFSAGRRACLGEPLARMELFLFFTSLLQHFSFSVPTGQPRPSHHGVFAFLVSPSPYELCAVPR

As for `CC1(c2cc(Cl)ccc2OCC(=O)O)CCCCC1`, the Ki in [1] came to 90 nM; in [2], 1210 nM. For the same compound, in the data set on Eosinophil [3], 451 nM corresponded to half-maximal inhibition (IC50).

Turning to `OCCOc1ccc(Cl)cc1C1CCCCC1`, the Ki in [1] and in [2] was more than 10000 nM in each case.

In the case of `O=C(O)COc1ccc(F)cc1C1CCCCC1`, the results for the Ki in data set [1] and in data set [2] were 446 nM and more than 10000 nM, respectively.

As for `O=C(O)CCOc1ccc(Cl)cc1C1CCCCC1`, the inhibition constant (Ki) in data set [1] was 799 nM; in data set [2] it was more than 10000 nM.

In the case of `O=C(O)COc1ccc(Cl)cc1C1CCCCC1`, the Ki in data set [1] was 154 nM; in [2], 7600 nM; on Thromboxane A2 receptor, more than 10000 nM; in data set [4] it was 3000 nM. In the data set on Eosinophil [3], this compound yielded an IC50 of 93 nM.

Take `O=C(O)COc1ccc(Cl)cc1C1CCCCCC1`: the figures for the Ki in data set [1] and in data set [2] were 59 nM and 1880 nM, respectively. For the same compound, the IC50 against Cytochrome P450 1A2 was more than 10000 nM; at Cytochrome P450 2D6, more than 10000 nM; against Cytochrome P450 3A4, more than 10000 nM; against Cytochrome P450 2C19, more than 10000 nM; in the data set on Eosinophil [3], 248 nM; against Cytochrome P450 2C9 it was more than 10000 nM. Also, the figures for the microsomal CLint in [5] and in data set [10] were 109 µL/min/mg and 205 µL/min/mg, respectively. For the same compound, the result in the data set with Eosinophil [6] was inactive. Besides, in [7], the Papp A→B is 8.4 ×10⁻⁶ cm/s. Also, in data set [8], the bioavailability was determined as 58%. Besides, the Vd in data set [9] was 0.52 L/kg. Further, the Papp B→A in data set [11] was found to be 21.4 ×10⁻⁶ cm/s. This compound also gave an AUC in data set [12] of 11.6 µM·h. In addition, the highest level in data set [13] (Cmax) was 4.7 µM. Further, in data set [14], the half-life was found to be 1.18 h. The same compound yielded a clearance in data set [15] of 7.3 mL/min/kg.

Consider `O=C(O)COc1ccccc1C1CCCCC1`, for which the results for the Ki in data set [1] and in data set [2] were 311 nM and more than 10000 nM, respectively.

In the case of `Clc1ccc(OCc2nnn[nH]2)c(C2CCCCC2)c1`, the Ki in [1] and in data set [2] was more than 10000 nM in each case.

In the case of `O=C(O)CCCOc1ccc(Cl)cc1C1CCCCC1`, the inhibition constant (Ki) in data set [1] is 1990 nM; in data set [2], more than 10000 nM.

Turning to `O=C(O)COc1ccc(Cl)cc1C1CCCC1`, the Ki in [1] turned out to be 150 nM; in data set [2] it was 4800 nM. The compound further registered an IC50 in the data set on Eosinophil [3] of 1010 nM.

The compound `C[C@@H](Oc1ccc(Cl)cc1C1CCCCC1)C(=O)O` showed a Ki in data set [2] of more than 10000 nM.

`CS(=O)(=O)NC(=O)COc1ccc(Cl)cc1C1CCCCC1`: the inhibition constant Ki in [1] and in data set [2] was more than 10000 nM throughout.

On to `COc1ccc(OCC(=O)O)c(C2CCCCC2)c1`, for which the Ki in [1] was 782 nM; in data set [2] it was more than 10000 nM.

As for `COC(=O)COc1ccc(Cl)cc1C1CCCCC1`, the figures for the Ki in data set [1] and in data set [2] were 3280 nM and 8900 nM, respectively.

Turning to `C=CCc1cc(Cl)ccc1OCC(=O)O`, the results for the Ki in data set [1] and in data set [2] were 5130 nM and 4740 nM, respectively.

`O=C(O)COc1ccc(-c2ccc(F)cc2)cc1C1CCCCC1`: the Ki was 99 nM in data set [1] and 6400 nM in data set [2].

For `O=C(O)COc1ccc(C(F)(F)F)cc1C1CCCCC1`, the Ki in data set [1] is 20 nM; in [2], more than 10000 nM. Besides, in the data set with Eosinophil [3], 172 nM corresponded to half-maximal inhibition (IC50).

Regarding `N#Cc1ccc(OCC(=O)O)c(C2CCCCC2)c1`, the Ki in [1] was 230 nM; in [2], more than 10000 nM. In addition, the IC50 in the data set on Eosinophil [3] came to 52 nM.

Turning to `C[C@H](Oc1ccc(Cl)cc1C1CCCCC1)C(=O)O`, the Ki in data set [2] amounted to 4490 nM.

Take `O=C(O)COc1ccc(Br)cc1C1CCCCC1`: the Ki in [1] is 83 nM; in [2] it was 5900 nM. In the data set with Eosinophil [3], this compound showed an IC50 of 448 nM.

For the compound `Cc1ccc(OCC(=O)O)c(C2CCCCC2)c1`, the Ki in data set [1] was 353 nM; in data set [2] it was more than 10000 nM.

`Cc1cc(Cl)ccc1OCC(=O)O` [METAXON]: the Ki in [1] and in data set [2] was more than 10000 nM in each case.

For orientation: Ki means a measure of affinity in units of concentration, obtained from inhibition or displacement. The low end stands for tighter binding, the high end for weaker binding. In general, IC50 refers to the point on the concentration scale where inhibition reaches its midpoint. High values mean weaker potency in that assay, low ones greater potency in that assay. In general, microsomal CLint refers to the capacity of the preparation to metabolise the compound, expressed as a volume cleared per time. A low value points to slow turnover. As a reminder, the bioavailability is the share of a dose that reaches the circulation, judged against a reference dose that is usually intravenous. Low values mean poor availability, high ones good availability. A word on the AUC: it is concentration integrated over time. For orientation: Cmax means the highest concentration seen after dosing. The half-life is the time in which the quantity being followed falls by half. Low values mean fast loss, high ones slow loss. Broadly, the clearance is the volume of plasma or blood freed of the substance per unit of time. A low value points to inefficient removal.

The record behind these values is ChEMBL document CHEMBL1140006, “2-Cycloalkyl phenoxyacetic acid CRTh2 receptor antagonists” (Bioorg Med Chem Lett, 2007).
